Experiments:
[1] = test system: Cd36 mRNA; test: RT-PCR of Cd36 mRNA in brains of APP23 mice; assay type: in vivo, mouse; conditions: Am80 0.5 and/or HX630 5 mg/kg/d, day 18
Procedure: APP23 mice begin forming amyloid deposits when they are 6 months old, but memory deficits in the MWM test appear quite early (before 3 months of age). Here, we used 8.5-month-old male APP23 mice and their WT littermates (C57BL/6J). We used stratified random sampling to divide mice (four to six per cage) into four groups to equalize the mean body weight of the study groups: mice given 0.5 mg/kg/d Am80, those given 5 mg/kg/d HX630, those given the mixture of 0.5 mg/kg/d Am80 and 5 mg/kg/d HX630, and those given the vehicle. Am80 and HX630 were suspended in 0.5% (w/v) carboxymethylcellulose solution and were orally administered to mice at 0.5 mg/kg (Am80) or 5 mg/kg (HX630) for 17 consecutive days (once daily at 18:00). Control animals received the same volume of 0.5% (w/v) carboxymethylcellulose solution orally, without the other compounds. […]
For semi-quantitative RT-PCR analysis, PCRs were carried out with Quick Taq HS DyeMix (DTM-101; Toyobo Co. Ltd., Osaka, Japan). […] Semi-quantitative PCR consisted of an initial denaturation cycle at 94° C. for 2 min, followed by 40 cycles for Cd36, 35 cycles for Mme, 30 cycles for Ide, and 26 cycles for β-actin. […] Densitometric quantification was done with the Image Gauge software program (Fuji Photo Film Co., Tokyo, Japan). […]

[2] = test system: rat primary microglia; test: Clearance of 125I-labeled oligomeric Aβ1-42 by rat primary microglia; assay type: cell-based; conditions: 5 μM each 48 h, then 6 h with 125I-o-Aβ1-42 1 μg/ml, vs vehicle-treated cells
Excerpt: Primary microglia (type 1) were harvested from primary mixed glial cell cultures prepared from neonatal Wistar rat pups, as previously reported. Mouse microglial cell line MG5 and mouse glial cell line A1 were maintained as previously described. Mouse neuroblastoma cell line N1E-115 and Neuro 2a (American Type Culture Collection, Manassas, Va., USA) were maintained in Dulbecco's modified Eagle's medium (DMEM) supplemented with 10% fetal bovine serum (FBS), 20 U/ml penicillin (Invitrogen, Gaithersburg, Md., USA), and 20 μg/ml streptomycin (Invitrogen). Primary rat microglia were treated with Am80 (5 μM) and/or HX630 (5 μM) in the presence and absence of GW9662 (10 μM) for 48 h in Eagle's MEM supplemented with 10% FBS and 0.2% glucose. MG5 cells and A1 cells were treated with Am80 (5 μM) and/or HX630 (5 μM) for 48 h in DMEM containing 10% FBS. N1E-115 cells were treated with Am80 (5 μM) and/or HX630 (5 μM) for 5 days in DMEM containing 2% FBS.
^125I-Labeled oligomeric Aβ1-42 (o-Aβ1-42) was prepared as described. Cells were cultured in 24-well plates for 48 h in Eagle's MEM supplemented with 10% FBS in the presence or absence of Am80 (5 μM) and HX630 (5 μM). After the 48-h treatment, the cells were washed twice with labeling medium (DMEM containing 3% BSA) and then incubated with ^125I-labeled o-Aβ1-42 for 6 h at 37° C. Following the 6-h incubation, medium was removed from each well, and soluble radioactivity in TCA (degraded and extracellularly released peptide fragments) was determined as an index of Aβ degradation in the medium as described previously. The Aβ degradation activity may thus include both receptor-mediated phagocytic activity and extracellular protease-mediated degradation. Cells were washed three times with PBS, then lysed with 0.4 ml of 0.1 M NaOH for 30 min at 37° C., and cell-associated (including cell-incorporated) radioactivity and cell proteins were determined with an autogamma counter and the BCA Protein Assay Reagent (Pierce), respectively. We could not determine the activity of IDE-dependent degradation in this medium, because the incubation medium was replaced with labeling medium prior to incubation with ^[…].

With `CN1c2ccccc2N=C(c2ccc(C(=O)O)cc2)c2cc3c(cc21)C(C)(C)CCC3(C)C` [HX630, 4-[5H-2,3-(2,5dimethyl-2,5-hexano)-5-methyldibenzo[b,e]-diazepin-11-yl]benzoic acid] the “Cd36 mRNA level” value [1] was “increased” and the “degradation activity towards 125I-labeled oligomeric Aβ1-42” value [2] was “increased”.
